Measured values published in article PMC3069647 (Journal of medicinal chemistry, 2011).

How the values were obtained:
human Pgp [1] = molecular target: T1, human Pgp (Homo sapiens, UniProt P08183); test: Inhibition of Pgp-mediated Rhodamine 123 efflux in L5178 MDR1 cells; conditions: mouse T lymphoma L5178 MDR1 cells
Pgp = conditions: cited from earlier work
human Pgp [2] = test: Inhibition of Pgp-mediated Rhodamine 123 efflux in L5178 MDR1 cells; conditions: mouse T lymphoma L5178 MDR1 cells
human Pgp [3] = molecular target: T1, human Pgp

T1 sequence (P08183 whole entry): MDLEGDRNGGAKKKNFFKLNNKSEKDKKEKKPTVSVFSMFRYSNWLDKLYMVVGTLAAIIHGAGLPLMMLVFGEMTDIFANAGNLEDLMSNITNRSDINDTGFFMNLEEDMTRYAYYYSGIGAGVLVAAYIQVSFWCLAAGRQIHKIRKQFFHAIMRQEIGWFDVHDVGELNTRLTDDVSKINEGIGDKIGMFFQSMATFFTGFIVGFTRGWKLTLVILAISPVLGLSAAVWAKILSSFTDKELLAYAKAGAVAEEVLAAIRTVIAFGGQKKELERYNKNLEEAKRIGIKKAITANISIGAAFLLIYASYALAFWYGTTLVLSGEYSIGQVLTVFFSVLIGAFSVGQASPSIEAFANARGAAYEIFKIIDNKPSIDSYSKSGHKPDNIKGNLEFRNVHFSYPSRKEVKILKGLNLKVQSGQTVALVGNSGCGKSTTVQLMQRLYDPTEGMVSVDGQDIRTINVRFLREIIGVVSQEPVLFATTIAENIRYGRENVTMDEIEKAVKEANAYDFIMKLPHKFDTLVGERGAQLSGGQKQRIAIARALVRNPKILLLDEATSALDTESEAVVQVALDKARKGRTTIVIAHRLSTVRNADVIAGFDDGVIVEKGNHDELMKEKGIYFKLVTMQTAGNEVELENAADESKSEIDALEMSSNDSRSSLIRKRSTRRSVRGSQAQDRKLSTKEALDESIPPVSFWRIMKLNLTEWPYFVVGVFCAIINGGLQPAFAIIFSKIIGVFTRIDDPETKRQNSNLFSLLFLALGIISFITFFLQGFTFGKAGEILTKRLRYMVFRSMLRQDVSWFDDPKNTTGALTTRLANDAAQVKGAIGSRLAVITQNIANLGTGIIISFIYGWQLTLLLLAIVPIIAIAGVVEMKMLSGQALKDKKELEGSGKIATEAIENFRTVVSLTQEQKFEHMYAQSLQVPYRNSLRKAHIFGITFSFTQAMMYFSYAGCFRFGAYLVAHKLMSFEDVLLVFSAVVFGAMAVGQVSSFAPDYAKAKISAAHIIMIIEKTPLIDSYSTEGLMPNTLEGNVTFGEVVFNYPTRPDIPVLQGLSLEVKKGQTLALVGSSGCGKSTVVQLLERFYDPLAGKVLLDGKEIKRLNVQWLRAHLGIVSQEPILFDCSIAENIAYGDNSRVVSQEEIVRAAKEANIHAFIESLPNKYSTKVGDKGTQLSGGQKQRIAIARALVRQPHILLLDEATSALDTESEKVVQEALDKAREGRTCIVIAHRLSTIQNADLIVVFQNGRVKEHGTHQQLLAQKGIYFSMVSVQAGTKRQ

SMILES	Ability to inhibit Pgp-mediated cell efflux of R123 (in words) (human Pgp [1])	also measured
C=CCc1ccccc1OCC(O)CNC(C)C (centres unmarked) [Alprenolol]	not effective	
CN(C)CCC=C1c2ccccc2CCc2ccccc21 [Amitriptyline]		Pgp inhibitor classification (Pgp): inhibitor
CCN(CC)CCCN(c1ccccc1)C1Cc2ccccc2C1 [Aprindine]	weak inhibitors	
O=C1CCc2ccc(OCCCCN3CCN(c4cccc(Cl)c4Cl)CC3)cc2N1 [Aripiprazole]		Ability to inhibit Pgp-mediated cell efflux of R123 (in words) (human Pgp [2]): efficacious Pgp inhibitors
CC(C)[C@H]1CC[C@H](C(=O)N[C@H](Cc2ccccc2)C(=O)O)CC1 [Nateglinide]	not effective	
CC1(C)S[C@@H]2[C@H](NC(=O)[C@H](C(=O)O)c3ccsc3)C(=O)N2[C@H]1C(=O)O [Ticarcillin]	not effective	
[Na+].[Na+].[Na+].[O]=[V]([O-])([O-])[O-] [Vi, Sodium orthovanadate]		IC50 (human Pgp [3]): ~700 µM
O=C1Cc2cc(CCN3CCN(c4nsc5ccccc45)CC3)c(Cl)cc2N1 [Ziprasidone]	weak inhibitors	
